Drawing on ChEMBL document CHEMBL3991601, “The target landscape of clinical kinase drugs” (Science, 2017), this text covers Kd for nine compounds.

Activity calls are given as the source filed them. Rule as the data show it, for most assays here: actives have a measured Kd and inactives only a lower limit.

Test [1] addresses T1, ADP/ATP translocase 2 (Homo sapiens, UniProt P05141).
T1 sequence (P05141 whole entry): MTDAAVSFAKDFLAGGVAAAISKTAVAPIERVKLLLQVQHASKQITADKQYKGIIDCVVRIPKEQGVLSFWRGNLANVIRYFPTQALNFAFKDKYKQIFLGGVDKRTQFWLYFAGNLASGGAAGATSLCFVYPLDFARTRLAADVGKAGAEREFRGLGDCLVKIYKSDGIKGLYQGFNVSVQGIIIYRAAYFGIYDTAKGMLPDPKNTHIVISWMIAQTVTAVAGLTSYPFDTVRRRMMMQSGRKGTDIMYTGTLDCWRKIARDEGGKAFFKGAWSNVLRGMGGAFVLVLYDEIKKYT

The target of test [2] is T2, Delta(24)-sterol reductase (Homo sapiens, UniProt Q15392).
T2 sequence (Q15392 whole entry): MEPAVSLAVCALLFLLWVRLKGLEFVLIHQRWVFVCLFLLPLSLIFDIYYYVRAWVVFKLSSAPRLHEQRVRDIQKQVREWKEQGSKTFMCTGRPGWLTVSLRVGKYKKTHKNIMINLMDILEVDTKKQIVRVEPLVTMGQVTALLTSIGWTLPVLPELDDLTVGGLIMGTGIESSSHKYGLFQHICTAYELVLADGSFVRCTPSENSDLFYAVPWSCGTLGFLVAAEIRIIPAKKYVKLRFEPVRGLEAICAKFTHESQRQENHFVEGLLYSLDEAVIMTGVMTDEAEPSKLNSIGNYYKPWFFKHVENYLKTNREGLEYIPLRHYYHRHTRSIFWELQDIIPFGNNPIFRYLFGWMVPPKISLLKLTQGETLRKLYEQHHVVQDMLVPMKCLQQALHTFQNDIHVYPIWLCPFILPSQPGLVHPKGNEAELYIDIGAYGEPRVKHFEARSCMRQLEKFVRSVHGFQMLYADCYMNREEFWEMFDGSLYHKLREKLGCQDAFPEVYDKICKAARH

In test [3] the target is Tyrosine-protein kinase Fyn (Homo sapiens, UniProt P06241).
Test [4] deals with Tyrosine-protein kinase CSK (Homo sapiens, UniProt P41240).
Test [5] addresses T3, Activin receptor type-1 (Homo sapiens, UniProt Q04771).
T3 sequence (Q04771 whole entry): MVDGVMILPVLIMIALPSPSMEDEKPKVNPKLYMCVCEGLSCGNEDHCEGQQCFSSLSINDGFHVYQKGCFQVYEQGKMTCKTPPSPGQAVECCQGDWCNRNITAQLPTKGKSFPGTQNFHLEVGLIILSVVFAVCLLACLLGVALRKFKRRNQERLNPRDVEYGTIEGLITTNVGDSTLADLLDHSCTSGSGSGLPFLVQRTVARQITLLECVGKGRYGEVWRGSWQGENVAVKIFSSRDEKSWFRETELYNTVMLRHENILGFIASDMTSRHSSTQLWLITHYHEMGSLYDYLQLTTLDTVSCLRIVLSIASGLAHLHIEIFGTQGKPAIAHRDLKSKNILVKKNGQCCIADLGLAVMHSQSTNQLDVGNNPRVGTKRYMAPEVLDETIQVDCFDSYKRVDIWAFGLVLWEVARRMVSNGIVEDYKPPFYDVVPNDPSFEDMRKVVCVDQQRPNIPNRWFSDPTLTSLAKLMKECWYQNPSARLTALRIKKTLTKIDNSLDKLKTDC

Test [6] addresses Macrophage-stimulating protein receptor (Homo sapiens, UniProt Q04912).
Test [7] deals with Elongation factor Tu, mitochondrial (Homo sapiens, UniProt P49411).
Test [8] has as its target Mitogen-activated protein kinase 7 (Homo sapiens, UniProt Q13164).
Test [9] has as its target Ribosomal protein S6 kinase alpha-4 (Homo sapiens, UniProt O75676).
For test [10], the target named is Receptor-interacting serine/threonine-protein kinase 2 (Homo sapiens, UniProt O43353).
Test [11] addresses Tyrosine-protein kinase ABL1 (Homo sapiens, UniProt P00519).
Test [12] deals with cAMP-dependent protein kinase catalytic subunit alpha (Homo sapiens, UniProt P17612).
In test [13] the target is T4, ATP-dependent RNA helicase DDX42 (Homo sapiens, UniProt Q86XP3).
T4 sequence (Q86XP3 whole entry): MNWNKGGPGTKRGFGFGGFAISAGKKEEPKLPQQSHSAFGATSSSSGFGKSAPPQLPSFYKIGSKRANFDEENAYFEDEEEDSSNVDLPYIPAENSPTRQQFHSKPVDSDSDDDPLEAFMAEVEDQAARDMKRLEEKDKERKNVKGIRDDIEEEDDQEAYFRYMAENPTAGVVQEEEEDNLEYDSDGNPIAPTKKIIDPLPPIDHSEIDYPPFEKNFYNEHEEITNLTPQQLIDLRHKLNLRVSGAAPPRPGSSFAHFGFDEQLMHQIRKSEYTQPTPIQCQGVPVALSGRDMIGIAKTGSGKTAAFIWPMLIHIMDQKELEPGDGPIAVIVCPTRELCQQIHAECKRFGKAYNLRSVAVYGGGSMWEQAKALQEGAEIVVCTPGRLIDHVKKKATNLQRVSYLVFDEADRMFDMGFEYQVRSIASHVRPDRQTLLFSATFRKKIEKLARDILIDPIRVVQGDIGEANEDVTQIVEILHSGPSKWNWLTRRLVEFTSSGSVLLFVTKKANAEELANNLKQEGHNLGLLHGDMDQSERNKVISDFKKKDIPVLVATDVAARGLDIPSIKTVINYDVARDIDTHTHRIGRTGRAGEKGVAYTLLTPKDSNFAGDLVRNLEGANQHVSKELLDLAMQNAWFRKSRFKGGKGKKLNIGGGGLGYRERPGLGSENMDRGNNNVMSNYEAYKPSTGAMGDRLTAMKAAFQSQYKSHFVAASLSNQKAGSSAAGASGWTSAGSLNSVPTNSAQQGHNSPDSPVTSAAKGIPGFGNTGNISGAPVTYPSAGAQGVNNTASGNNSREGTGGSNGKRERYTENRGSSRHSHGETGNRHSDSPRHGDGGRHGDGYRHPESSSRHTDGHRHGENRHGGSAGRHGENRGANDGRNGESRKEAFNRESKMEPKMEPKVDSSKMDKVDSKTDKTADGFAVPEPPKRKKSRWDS
Also: in the data inactive means no Kd found up to 30 µM.

Chain of Tyrosine-protein kinase CSK (P41240 whole entry): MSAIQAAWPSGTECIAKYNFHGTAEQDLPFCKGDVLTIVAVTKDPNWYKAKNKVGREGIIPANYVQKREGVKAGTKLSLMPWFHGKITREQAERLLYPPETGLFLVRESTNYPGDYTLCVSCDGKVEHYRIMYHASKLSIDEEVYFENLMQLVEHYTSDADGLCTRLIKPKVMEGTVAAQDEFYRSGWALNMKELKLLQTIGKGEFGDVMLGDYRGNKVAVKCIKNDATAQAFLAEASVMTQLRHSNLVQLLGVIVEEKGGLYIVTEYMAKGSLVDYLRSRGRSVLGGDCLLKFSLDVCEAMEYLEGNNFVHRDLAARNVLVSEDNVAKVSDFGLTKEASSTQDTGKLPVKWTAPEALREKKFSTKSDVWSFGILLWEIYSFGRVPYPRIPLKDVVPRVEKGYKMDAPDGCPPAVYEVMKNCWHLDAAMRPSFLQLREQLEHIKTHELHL
Chain of Tyrosine-protein kinase ABL1 (P00519 whole entry): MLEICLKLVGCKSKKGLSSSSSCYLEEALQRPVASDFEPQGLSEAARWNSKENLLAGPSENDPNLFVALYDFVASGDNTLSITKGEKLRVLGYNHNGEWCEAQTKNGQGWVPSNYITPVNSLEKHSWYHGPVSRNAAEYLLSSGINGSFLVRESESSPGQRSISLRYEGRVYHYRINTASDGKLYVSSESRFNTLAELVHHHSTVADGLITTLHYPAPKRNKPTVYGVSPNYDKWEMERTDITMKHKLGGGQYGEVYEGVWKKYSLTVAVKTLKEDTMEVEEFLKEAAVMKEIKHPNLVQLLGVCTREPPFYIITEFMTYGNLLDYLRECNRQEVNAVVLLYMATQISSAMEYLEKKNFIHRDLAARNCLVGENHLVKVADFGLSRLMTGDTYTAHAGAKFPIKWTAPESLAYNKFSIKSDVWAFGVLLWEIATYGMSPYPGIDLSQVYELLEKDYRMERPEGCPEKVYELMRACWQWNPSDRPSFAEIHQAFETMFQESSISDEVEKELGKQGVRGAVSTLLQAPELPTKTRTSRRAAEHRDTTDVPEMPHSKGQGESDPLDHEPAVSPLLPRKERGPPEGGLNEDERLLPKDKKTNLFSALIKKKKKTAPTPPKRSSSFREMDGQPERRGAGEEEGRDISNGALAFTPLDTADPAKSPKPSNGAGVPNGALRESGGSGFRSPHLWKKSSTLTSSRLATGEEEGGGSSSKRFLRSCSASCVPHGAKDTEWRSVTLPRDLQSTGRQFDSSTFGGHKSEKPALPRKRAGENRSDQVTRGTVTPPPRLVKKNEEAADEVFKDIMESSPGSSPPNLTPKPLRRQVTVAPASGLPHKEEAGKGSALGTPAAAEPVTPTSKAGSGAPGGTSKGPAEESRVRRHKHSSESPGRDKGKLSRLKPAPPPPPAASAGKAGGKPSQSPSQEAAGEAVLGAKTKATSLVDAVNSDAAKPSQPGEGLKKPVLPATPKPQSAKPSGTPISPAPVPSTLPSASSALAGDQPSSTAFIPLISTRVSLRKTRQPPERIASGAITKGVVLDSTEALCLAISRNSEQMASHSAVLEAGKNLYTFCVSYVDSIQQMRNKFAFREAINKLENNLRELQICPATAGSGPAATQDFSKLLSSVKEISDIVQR
Chain of Ribosomal protein S6 kinase alpha-4 (O75676 whole entry): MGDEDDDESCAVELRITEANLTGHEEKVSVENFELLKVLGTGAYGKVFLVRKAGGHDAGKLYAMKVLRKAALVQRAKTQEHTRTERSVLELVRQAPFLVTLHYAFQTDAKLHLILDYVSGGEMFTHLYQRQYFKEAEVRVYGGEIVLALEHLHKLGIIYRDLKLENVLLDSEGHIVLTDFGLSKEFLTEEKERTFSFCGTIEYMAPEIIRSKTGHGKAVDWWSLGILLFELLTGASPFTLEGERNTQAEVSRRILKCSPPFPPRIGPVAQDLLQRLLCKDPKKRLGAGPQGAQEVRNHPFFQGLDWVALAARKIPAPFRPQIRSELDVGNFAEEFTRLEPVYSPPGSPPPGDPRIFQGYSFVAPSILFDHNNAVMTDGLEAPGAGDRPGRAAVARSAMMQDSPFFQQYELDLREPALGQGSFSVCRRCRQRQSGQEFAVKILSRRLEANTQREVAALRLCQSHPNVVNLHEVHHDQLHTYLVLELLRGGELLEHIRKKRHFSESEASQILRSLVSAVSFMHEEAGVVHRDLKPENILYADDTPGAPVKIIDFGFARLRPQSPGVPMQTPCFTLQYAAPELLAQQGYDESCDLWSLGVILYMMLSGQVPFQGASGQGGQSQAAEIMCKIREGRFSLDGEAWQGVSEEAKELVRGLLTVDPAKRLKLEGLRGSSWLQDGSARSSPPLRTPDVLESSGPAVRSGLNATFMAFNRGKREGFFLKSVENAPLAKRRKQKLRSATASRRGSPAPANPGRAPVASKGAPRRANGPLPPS
Chain of Mitogen-activated protein kinase 7 (Q13164 whole entry): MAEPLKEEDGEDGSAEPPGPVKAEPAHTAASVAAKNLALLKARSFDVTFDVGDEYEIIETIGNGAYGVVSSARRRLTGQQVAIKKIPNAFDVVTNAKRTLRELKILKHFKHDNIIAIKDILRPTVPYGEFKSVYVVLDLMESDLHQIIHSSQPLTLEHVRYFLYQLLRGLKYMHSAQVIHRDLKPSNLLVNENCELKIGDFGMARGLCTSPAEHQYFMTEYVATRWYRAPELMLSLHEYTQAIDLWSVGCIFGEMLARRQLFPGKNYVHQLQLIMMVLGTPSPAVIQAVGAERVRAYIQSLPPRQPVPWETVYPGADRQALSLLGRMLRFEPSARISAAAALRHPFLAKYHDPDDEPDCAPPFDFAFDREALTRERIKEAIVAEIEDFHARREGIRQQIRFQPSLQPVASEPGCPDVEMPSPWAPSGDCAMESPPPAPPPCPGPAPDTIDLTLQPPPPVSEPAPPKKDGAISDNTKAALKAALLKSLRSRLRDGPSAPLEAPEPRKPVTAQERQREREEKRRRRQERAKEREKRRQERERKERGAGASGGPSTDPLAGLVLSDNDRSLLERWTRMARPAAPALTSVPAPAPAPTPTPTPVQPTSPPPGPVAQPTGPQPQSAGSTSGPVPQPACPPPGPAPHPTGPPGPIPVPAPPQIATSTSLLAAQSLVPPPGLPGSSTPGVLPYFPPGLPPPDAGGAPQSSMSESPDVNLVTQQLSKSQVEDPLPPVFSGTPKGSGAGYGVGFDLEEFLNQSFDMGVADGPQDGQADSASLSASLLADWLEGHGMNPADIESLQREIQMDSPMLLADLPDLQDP
Chain of Receptor-interacting serine/threonine-protein kinase 2 (O43353 whole entry): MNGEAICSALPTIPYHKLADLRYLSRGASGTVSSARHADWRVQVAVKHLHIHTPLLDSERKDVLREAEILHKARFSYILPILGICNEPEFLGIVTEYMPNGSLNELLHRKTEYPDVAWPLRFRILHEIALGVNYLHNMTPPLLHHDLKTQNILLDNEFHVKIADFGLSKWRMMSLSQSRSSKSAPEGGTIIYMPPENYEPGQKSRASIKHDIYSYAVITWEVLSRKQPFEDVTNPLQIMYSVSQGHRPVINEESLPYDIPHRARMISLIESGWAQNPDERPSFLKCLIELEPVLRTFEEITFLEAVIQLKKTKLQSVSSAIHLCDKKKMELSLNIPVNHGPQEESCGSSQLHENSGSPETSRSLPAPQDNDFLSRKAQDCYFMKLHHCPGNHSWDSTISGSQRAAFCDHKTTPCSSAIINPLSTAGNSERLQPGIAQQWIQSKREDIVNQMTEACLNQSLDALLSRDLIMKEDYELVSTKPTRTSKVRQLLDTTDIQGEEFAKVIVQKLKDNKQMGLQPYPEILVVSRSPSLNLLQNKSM
Chain of Tyrosine-protein kinase Fyn (P06241 whole entry): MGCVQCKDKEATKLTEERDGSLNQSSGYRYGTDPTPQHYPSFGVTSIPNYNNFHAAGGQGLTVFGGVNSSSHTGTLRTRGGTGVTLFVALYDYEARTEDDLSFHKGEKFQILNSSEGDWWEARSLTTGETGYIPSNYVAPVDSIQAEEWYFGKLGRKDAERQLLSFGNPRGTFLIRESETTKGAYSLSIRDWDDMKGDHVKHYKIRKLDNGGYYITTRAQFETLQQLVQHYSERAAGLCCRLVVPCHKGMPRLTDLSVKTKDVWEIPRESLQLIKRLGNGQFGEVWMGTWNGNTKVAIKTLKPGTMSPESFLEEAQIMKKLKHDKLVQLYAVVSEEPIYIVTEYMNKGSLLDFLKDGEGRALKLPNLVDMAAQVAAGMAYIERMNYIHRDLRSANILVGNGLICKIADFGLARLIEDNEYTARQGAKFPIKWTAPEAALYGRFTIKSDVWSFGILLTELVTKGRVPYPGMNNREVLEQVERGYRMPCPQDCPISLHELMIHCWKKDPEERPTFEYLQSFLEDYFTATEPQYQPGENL

Consider `O[C@H]1CC[C@H](Nc2ncc3nc(Nc4c(F)cc(F)cc4F)n([C@H]4CCOC4)c3n2)CC1` [TANZISERTIB], for which the Kd in [1], in test [2], in [3], in test [4], in test [5] and in [6] was > 30 µM (inactive) in each case. In addition, the Kd in test [7], in [8], in test [9], in [10], in test [11] and in test [12] was > 30 µM (inactive) throughout.

`O=C(O)c1ccc2c(c1)nc(Nc1cccc(Cl)c1)c1ccncc12` [SILMITASERTIB]: the Kd in test [1], in test [2], in test [3], in test [4], in test [5] and in test [6] was > 30 µM (inactive) in each case. Moreover, the Kd in [7], in [8], in test [9], in [10], in test [11] and in test [12] was > 30 µM (inactive) in each case.

As for `c1cc(OCCN2CCCCC2)cc(-c2n[nH]c3ccc(-c4nc[nH]n4)cc23)c1` [CC-401], the Kd in [1], in [2], in [3], in test [4], in [5] and in test [6] was > 30 µM (inactive) in each case. For the same compound, the Kd in test [7], in test [8], in test [9], in test [10], in test [11] and in [12] was > 30 µM (inactive) in each case.

For the compound `O=C(Nc1ccc(OC(F)(F)F)cc1)c1sccc1NCc1ccnc2ccccc12` [OSI-930], the Kd in [1], in [2], in test [3], in [4], in test [5] and in test [6] was > 30 µM (inactive) in each case. In addition, the Kd in test [7], in test [8], in [9], in test [10], in test [11] and in [12] was > 30 µM (inactive) throughout.

As for `CC[C@@](C)(Nc1ccnc(-c2c[nH]c3ncccc23)n1)C(=O)NCC(F)(F)F` [DECERNOTINIB], the Kd in test [1], in [2], in test [3], in test [4], in test [5] and in test [6] was > 30 µM (inactive) in each case. Moreover, the Kd – broadly, the concentration at which binding is half-saturated – was > 30 µM (inactive) in test [7]; > 30 µM (inactive) in test [8]; > 30 µM (inactive) in test [9]; > 30 µM (inactive) in test [10]; 0.842 µM in test [11]; > 30 µM (inactive) in test [12].

On to `COc1cc(F)c(F)c(Nc2ccc(I)cc2F)c1NS(=O)(=O)C1(C[C@H](O)CO)CC1` [REFAMETINIB], for which the Kd in [1], in [3], in [4], in test [5], in [6] and in test [7] was > 30 µM (inactive) each time. Moreover, the Kd in [8], in [9], in [10], in test [11] and in [12] was > 30 µM (inactive) each time.

Regarding `O=S(=O)(c1cccc2cnccc12)N1CCCNCC1` [FASUDIL], the Kd in [1], in test [2], in test [3], in test [4], in test [5] and in test [7] was > 30 µM (inactive) in each case. Also, the Kd in test [8], in test [9], in [10], in test [13] and in [11] was > 30 µM (inactive) each time.

Take `COc1cc2nccc(Oc3ccc(NC(=O)C4(C(=O)Nc5ccc(F)cc5)CC4)cc3)c2cc1OC` [CABOZANTINIB]: the Kd in test [1], in [2], in test [3], in test [4], in test [5] and in [7] was > 30 µM (inactive) each time. Further, the Kd in [8] was > 30 µM (inactive); in [9] it was > 30 µM (inactive); in test [10], 0.767 µM (active); in test [13], > 30 µM (inactive); in test [11], 1.1 µM (active); in test [12] it was > 30 µM (inactive).

On to `CC(C)CC(=O)Nc1[nH]nc2c1CN(C(=O)C1CCN(C)CC1)C2(C)C` [PHA-793887], for which the Kd in test [1], in test [2], in test [3], in test [4], in test [5] and in [6] was > 30 µM (inactive) in each case. The Kd in [7], in test [8], in [9], in test [10], in [13] and in test [12] was > 30 µM (inactive) each time.
